In paper PMC6513986, “Molecular basis for heat desensitization of TRPV1 ion channels” (Nature Communications, 2019):
Read-outs that look alike come from different tables or passages of the source.

Assays:
mV1 T371G = mV1 T371G (Mus musculus, UniProt Q704Y3, T371G); experiment: Agonist activation, patch clamp, HEK293T; type: cell-based; conditions: read-out: EC50_Capsaicin
mV1 CΔ30 (Glu747-Phe776) = mV1 CΔ30 (Glu747-Phe776) (Mus musculus, UniProt Q704Y3, DEL747-776); experiment: Agonist activation, patch clamp, HEK293T; type: cell-based; conditions: read-out: EC50_Capsaicin
platypus TRPV1 (pV1) = platypus TRPV1 (pV1) (Ornithorhynchus anatinus, UniProt F7A7B4); experiment: Agonist activation, patch clamp, HEK293T; type: cell-based; conditions: for EC50_Capsaicin: Supp Table 1 data
[1] = system: DRG neurons of p-trpv1 mice; experiment: Patch clamp of DRG neurons of p-trpv1 mice; type: cell-based, mouse; conditions: small diameter DRG neurons, patch clamping
Description: All recordings were performed at room temperature.
DRG neurons were acutely dissociated and maintained in a short-term primary culture according to procedures. Briefly, after mice were killed by CO2 inhalation and decapitated, vertebral column was opened by a dorsal approach. DRG neurons were collected using fine forceps from both sides of the spinal column and transferred into DMEM medium (GIBCO), and the spinal nerves were cut off using fine ophthalmological scissors and digested by […] (m/m, Sigma) for 20 min. Following the wash of collagenase and trypsin, DRG neurons were incubated at 37 °C in 5% CO2. Cells were used for electrophysiological experiments within the next 24 h.

Tree shrew TRPV1 = Tree shrew TRPV1 (Tupaia chinensis, UniProt L8Y7X1); experiment: Agonist activation, patch clamp, HEK293T; type: cell-based, Tupaia belangeri chinensis; conditions: read-out: EC50_Capsaicin
mV1_685 (ANAP) = mV1_685 (ANAP) (Mus musculus, UniProt Q704Y3, E685X); experiment: Agonist activation of ANAP-incorporated channel, patch clamp; type: cell-based
Camel TRPV1 = Camel TRPV1 (Camelus ferus, UniProt A0A8B8UHM1); experiment: Agonist activation, patch clamp, HEK293T; type: cell-based; conditions: read-out: EC50_Capsaicin
mouse TRPV1 (mV1) [2] = target: T1, mouse TRPV1 (mV1) (Mus musculus, UniProt Q704Y3); experiment: Agonist activation, patch clamp, HEK293T; type: cell-based; conditions: read-out: EC50_Capsaicin
pV1_mN chimera = pV1_mN chimera (Ornithorhynchus anatinus, UniProt F7A7B4); experiment: Agonist activation, patch clamp, HEK293T; type: cell-based, platypus / mouse; conditions: read-out: EC50_Capsaicin
pV1_mNC chimera = pV1_mNC chimera (Ornithorhynchus anatinus, UniProt F7A7B4); experiment: Agonist activation, patch clamp, HEK293T; type: cell-based, platypus / mouse; conditions: read-out: EC50_Capsaicin
pV1_643 (ANAP) = pV1_643 (ANAP) (Ornithorhynchus anatinus, UniProt F7A7B4, S634X)
mouse TRPV1 (mV1) [3] = target: T1, mouse TRPV1 (mV1); conditions: cited from earlier work
Description: The heat activation threshold of pV1, at ~35 °C, is slightly higher than the body core temperature of platypus (32 °C)[17],[18] (Fig. 1b, c), again reminiscent of ot ...

mV1 K831A = mV1 K831A (Mus musculus, UniProt Q704Y3, K831A); experiment: Agonist activation, patch clamp, HEK293T; type: cell-based; conditions: read-out: EC50_Capsaicin
mV1 M834A = mV1 M834A (Mus musculus, UniProt Q704Y3, M834A); experiment: Agonist activation, patch clamp, HEK293T; type: cell-based; conditions: read-out: EC50_Capsaicin
mV1 K839A = mV1 K839A (Mus musculus, UniProt Q704Y3, K839A); experiment: Agonist activation, patch clamp, HEK293T; type: cell-based; conditions: read-out: EC50_Capsaicin
mV1 E838A = mV1 E838A (Mus musculus, UniProt Q704Y3, E838A); experiment: Agonist activation, patch clamp, HEK293T; type: cell-based; conditions: read-out: EC50_Capsaicin
TRPV1 = conditions: cited from earlier work
mV1_241 (ANAP) = mV1_241 (ANAP) (Mus musculus, UniProt Q704Y3, K241X); experiment: Agonist activation of ANAP-incorporated channel, patch clamp; type: cell-based
mV1 CΔ23 (Ser777-Asp799) = mV1 CΔ23 (Ser777-Asp799) (Mus musculus, UniProt Q704Y3, DEL777-799); experiment: Agonist activation, patch clamp, HEK293T; type: cell-based; conditions: read-out: EC50_Capsaicin

COc1cc(CNC(=O)CCCC/C=C/C(C)C)ccc1O [Capsaicin, capsaicin]
EC50 (mV1 T371G; mean ± s.e.m., n = 3): 322 nM | EC50 (mV1 T371G; replicate 1): 349 nM | EC50 (mV1 T371G; replicate 2): 332 nM | EC50 (mV1 CΔ30 (Glu747-Phe776); mean ± s.e.m., n = 5): 372 nM | EC50 (mV1 CΔ30 (Glu747-Phe776); replicate 1): 252 nM | EC50 (mV1 CΔ30 (Glu747-Phe776); replicate 2): 260 nM | EC50 (mV1 CΔ30 (Glu747-Phe776); replicate 3): 424 nM | EC50 (mV1 CΔ30 (Glu747-Phe776); replicate 4): 463 nM | EC50 (mV1 CΔ30 (Glu747-Phe776); replicate 5): 461 nM | EC50_Capsaicin (platypus TRPV1 (pV1); replicate 1): 367 nM | EC50_Capsaicin (platypus TRPV1 (pV1); replicate 2): 246 nM | EC50_Capsaicin (platypus TRPV1 (pV1); replicate 4): 271 nM | EC50_Capsaicin (platypus TRPV1 (pV1); replicate 5): 368 nM | activation of pV1 by capsaicin (platypus TRPV1 (pV1); whole-cell, 10 μM): currents elicited | response to capsaicin [1]: well maintained | EC50 (Tree shrew TRPV1; mean ± s.e.m., n = 3): 5.26 µM | EC50 (Tree shrew TRPV1; replicate 1): 4.932 µM | EC50 (Tree shrew TRPV1; replicate 2): 5.507 µM | EC50 (Tree shrew TRPV1; replicate 3): 5.341 µM | EC50 (mV1_685 (ANAP)): 295 nM | EC50_Capsaicin (mV1_685 (ANAP); replicate 1): 321 nM | EC50_Capsaicin (mV1_685 (ANAP); replicate 3): 335 nM | EC50_Capsaicin (mV1_685 (ANAP); replicate 4): 287 nM | EC50_Capsaicin (mV1_685 (ANAP); replicate 5): 299 nM | EC50_Capsaicin (mV1_685 (ANAP); replicate 6): 268 nM | EC50_Capsaicin (mV1_685 (ANAP); replicate 7): 335 nM | EC50_Capsaicin (mV1_685 (ANAP); replicate 8): 254 nM | EC50 (Camel TRPV1; mean ± s.e.m., n = 5): 540 nM | EC50 (Camel TRPV1; replicate 1): 445 nM | EC50 (Camel TRPV1; replicate 2): 443 nM | EC50 (Camel TRPV1; replicate 3): 562 nM | EC50 (Camel TRPV1; replicate 4): 619 nM | EC50 (Camel TRPV1; replicate 5): 631 nM | EC50 (mouse TRPV1 (mV1) [2]; Supp Table 1 data, replicate 1): 249 nM | EC50 (mouse TRPV1 (mV1) [2]; Supp Table 1 data, replicate 2): 299 nM | EC50 (mouse TRPV1 (mV1) [2]; Supp Table 2 data, replicate 1): 277 nM | EC50 (mouse TRPV1 (mV1) [2]; Supp Table 2 data, replicate 2): 302 nM | EC50 (mouse TRPV1 (mV1) [2]; Supp Table 3 data, replicate 1): 276 nM | EC50 (mouse TRPV1 (mV1) [2]; Supp Table 3 data, replicate 2): 306 nM | EC50 (mouse TRPV1 (mV1) [2]; Supp Table 3 data, replicate 3): 315 nM | EC50 (mouse TRPV1 (mV1) [2]; Supp Table 4 data, replicate 1): 297 nM | EC50 (mouse TRPV1 (mV1) [2]; Supp Table 4 data, replicate 2): 279 nM | EC50 (mouse TRPV1 (mV1) [2]; Supp Table 4 data, replicate 3): 321 nM | EC50 (pV1_mN chimera; mean ± s.e.m., n = 6): 313 nM | EC50 (pV1_mN chimera; replicate 2): 294 nM | EC50 (pV1_mN chimera; replicate 3): 360 nM | EC50 (pV1_mN chimera; replicate 5): 279 nM | EC50 (pV1_mNC chimera; mean ± s.e.m., n = 6): 306 nM | EC50 (pV1_mNC chimera; replicate 3): 300 nM | EC50 (pV1_mNC chimera; replicate 4): 276 nM | EC50_Capsaicin (pV1_643 (ANAP); replicate 1): 323 nM | EC50_Capsaicin (pV1_643 (ANAP); replicate 2): 276 nM | EC50_Capsaicin (pV1_643 (ANAP); replicate 3): 290 nM | EC50_Capsaicin (pV1_643 (ANAP); replicate 4): 327 nM | EC50_Capsaicin (pV1_643 (ANAP); replicate 6): 351 nM | capsaicin sensitivity of heat-desensitized channels (mouse TRPV1 (mV1) [3]): less sensitive | EC50 (mV1 K831A; mean ± s.e.m., n = 3): 354 nM | EC50 (mV1 K831A; replicate 1): 417 nM | EC50 (mV1 K831A; replicate 2): 355 nM | EC50 (mV1 K831A; replicate 3): 290 nM | EC50 (mV1 M834A; mean ± s.e.m., n = 3): 329 ± 23 nM | EC50 (mV1 M834A; replicate 1): 280 nM | EC50 (mV1 M834A; replicate 2): 378 nM | EC50 (mV1 M834A; replicate 3): 329 nM | EC50 (mV1 K839A; mean ± s.e.m., n = 3): 293 nM | EC50 (mV1 K839A; replicate 1): 268 nM | EC50 (mV1 K839A; replicate 2): 292 nM | EC50 (mV1 E838A; mean ± s.e.m., n = 3): 565 nM | EC50 (mV1 E838A; replicate 1): 660 nM | EC50 (mV1 E838A; replicate 2): 597 nM | EC50 (mV1 E838A; replicate 3): 438 nM | effect of capsaicin administration (TRPV1): a burning sensation and acute drop in body core temperature (hypothermia) | EC50 (mV1_241 (ANAP)): 290 nM | EC50_Capsaicin (mV1_241 (ANAP); replicate 1): 256 nM | EC50_Capsaicin (mV1_241 (ANAP); replicate 2): 283 nM | EC50_Capsaicin (mV1_241 (ANAP); replicate 3): 296 nM | EC50_Capsaicin (mV1_241 (ANAP); replicate 4): 299 nM | EC50_Capsaicin (mV1_241 (ANAP); replicate 5): 316 nM | EC50 (mV1 CΔ23 (Ser777-Asp799); mean ± s.e.m., n = 3): 398 nM | EC50 (mV1 CΔ23 (Ser777-Asp799); replicate 1): 320 nM | EC50 (mV1 CΔ23 (Ser777-Asp799); replicate 2): 353 nM | EC50 (mV1 CΔ23 (Ser777-Asp799); replicate 3): 521 nM
